Measured values published in the NIST ThermoML archive (doi:10.1021/je200811n).

Conditions: Hot wire method

C=C(F)C(F)(F)F [2,3,3,3-tetrafluoro-1-propene]
Conditions	thermal conductivity [W/m/K]
303.53 K, 5728 kPa, Liquid	0.06591
303.55 K, 638 kPa, Gas	0.01428
303.58 K, 863 kPa, Liquid	0.06214
303.62 K, 95 kPa, Gas	0.01418
303.69 K, 16013 kPa, Liquid	0.0724
303.7 K, 10745 kPa, Liquid	0.06899
303.7 K, 20552 kPa, Liquid	0.07462
303.71 K, 509 kPa, Gas	0.0142
303.73 K, 5727 kPa, Liquid	0.06571
303.76 K, 199 kPa, Gas	0.01415
303.8 K, 863 kPa, Liquid	0.06166
303.93 K, 349 kPa, Gas	0.01413
304.07 K, 95 kPa, Gas	0.01428
304.07 K, 16014 kPa, Liquid	0.07249
304.07 K, 20551 kPa, Liquid	0.07457
304.1 K, 10744 kPa, Liquid	0.06936
304.15 K, 5727 kPa, Liquid	0.06587
304.2 K, 199 kPa, Gas	0.0142
304.24 K, 861 kPa, Liquid	0.06192
304.28 K, 20546 kPa, Liquid	0.07468
304.3 K, 16011 kPa, Liquid	0.07229
304.33 K, 10741 kPa, Liquid	0.069
304.39 K, 5724 kPa, Liquid	0.06553
304.5 K, 861 kPa, Liquid	0.06141
304.55 K, 95 kPa, Gas	0.01429
311.19 K, 200 kPa, Gas	0.01522
311.21 K, 97 kPa, Gas	0.01495
311.39 K, 298 kPa, Gas	0.01522
311.41 K, 200 kPa, Gas	0.01508
311.44 K, 97 kPa, Gas	0.01475
311.61 K, 298 kPa, Gas	0.01516
311.64 K, 200 kPa, Gas	0.01494
311.67 K, 98 kPa, Gas	0.01469
311.84 K, 298 kPa, Gas	0.01507
311.87 K, 877 kPa, Gas	0.01518
311.89 K, 200 kPa, Gas	0.01484
311.92 K, 97 kPa, Gas	0.01463
311.99 K, 676 kPa, Gas	0.01501
312.01 K, 610 kPa, Gas	0.01499
312.09 K, 298 kPa, Gas	0.01504
312.14 K, 200 kPa, Gas	0.01477
312.15 K, 876 kPa, Gas	0.01537
312.16 K, 409 kPa, Gas	0.0149
312.18 K, 97 kPa, Gas	0.01458
312.25 K, 298 kPa, Gas	0.01491
312.3 K, 675 kPa, Gas	0.01513
312.31 K, 610 kPa, Gas	0.01511
312.36 K, 200 kPa, Gas	0.01491
312.46 K, 875 kPa, Gas	0.01532
312.49 K, 408 kPa, Gas	0.01491
312.57 K, 97 kPa, Gas	0.01511
312.58 K, 298 kPa, Gas	0.01491
312.62 K, 673 kPa, Gas	0.01513
312.66 K, 608 kPa, Gas	0.01506
312.72 K, 200 kPa, Gas	0.01494
312.8 K, 873 kPa, Gas	0.01537
312.85 K, 408 kPa, Gas	0.01492
312.96 K, 298 kPa, Gas	0.01498
312.97 K, 97 kPa, Gas	0.01513
312.97 K, 673 kPa, Gas	0.01511
313.01 K, 607 kPa, Gas	0.01512
313.11 K, 200 kPa, Gas	0.01497
313.15 K, 872 kPa, Gas	0.01537
313.23 K, 408 kPa, Gas	0.01499
313.34 K, 672 kPa, Gas	0.01515
313.36 K, 298 kPa, Gas	0.01497
313.38 K, 608 kPa, Gas	0.01508
313.39 K, 98 kPa, Gas	0.01515
313.53 K, 200 kPa, Gas	0.015
313.62 K, 409 kPa, Gas	0.01501
313.78 K, 298 kPa, Gas	0.01501
313.83 K, 97 kPa, Gas	0.01516
313.96 K, 201 kPa, Gas	0.01503
314.3 K, 97 kPa, Gas	0.01518
321.31 K, 103 kPa, Gas	0.01573
321.31 K, 200 kPa, Gas	0.01591
321.31 K, 302 kPa, Gas	0.01608
321.46 K, 1449 kPa, Liquid	0.05663
321.54 K, 103 kPa, Gas	0.01562
321.54 K, 200 kPa, Gas	0.01577
321.54 K, 302 kPa, Gas	0.01588
321.56 K, 1449 kPa, Liquid	0.05669
321.75 K, 1115 kPa, Gas	0.0164
321.76 K, 302 kPa, Gas	0.01587
321.78 K, 103 kPa, Gas	0.01553
321.79 K, 200 kPa, Gas	0.01566
321.82 K, 1447 kPa, Liquid	0.05704
321.95 K, 1449 kPa, Liquid	0.05672
321.97 K, 6367 kPa, Liquid	0.06142
322.01 K, 302 kPa, Gas	0.01579
322.01 K, 11135 kPa, Liquid	0.06547
322.03 K, 200 kPa, Gas	0.0156
322.04 K, 103 kPa, Gas	0.01545
322.04 K, 1115 kPa, Gas	0.01641
322.11 K, 1199 kPa, Gas	0.01674
322.14 K, 959 kPa, Gas	0.01623
322.15 K, 16399 kPa, Liquid	0.06904
322.18 K, 862 kPa, Gas	0.0161
322.22 K, 1450 kPa, Liquid	0.05677
322.22 K, 6361 kPa, Liquid	0.06113
322.24 K, 721 kPa, Gas	0.01595
322.25 K, 302 kPa, Gas	0.01579
322.25 K, 21278 kPa, Liquid	0.07192
322.26 K, 11135 kPa, Liquid	0.06468
322.26 K, 16399 kPa, Liquid	0.06856
322.28 K, 617 kPa, Gas	0.01584
322.29 K, 200 kPa, Gas	0.01556
322.33 K, 103 kPa, Gas	0.01529
322.35 K, 1115 kPa, Gas	0.01644
322.36 K, 21276 kPa, Liquid	0.07119
322.37 K, 1451 kPa, Liquid	0.05654
322.37 K, 6358 kPa, Liquid	0.06119
322.38 K, 454 kPa, Gas	0.01579
322.39 K, 1199 kPa, Gas	0.01671
322.39 K, 11134 kPa, Liquid	0.06479
322.45 K, 958 kPa, Gas	0.01621
322.5 K, 861 kPa, Gas	0.01614
322.51 K, 302 kPa, Gas	0.01582
322.56 K, 720 kPa, Gas	0.01597
322.6 K, 16396 kPa, Liquid	0.06784
322.62 K, 617 kPa, Gas	0.01591
322.63 K, 6353 kPa, Liquid	0.06144
322.64 K, 201 kPa, Gas	0.01586
322.65 K, 1450 kPa, Liquid	0.05654
322.66 K, 11130 kPa, Liquid	0.06486
322.67 K, 1114 kPa, Gas	0.01646
322.69 K, 1199 kPa, Gas	0.01673
322.71 K, 21274 kPa, Liquid	0.0708
322.73 K, 453 kPa, Gas	0.01585
322.76 K, 958 kPa, Gas	0.01622
322.76 K, 16394 kPa, Liquid	0.06823
322.8 K, 6353 kPa, Liquid	0.06127
322.81 K, 103 kPa, Gas	0.01605
322.81 K, 11128 kPa, Liquid	0.06487
322.82 K, 860 kPa, Gas	0.01612
322.84 K, 1450 kPa, Liquid	0.05629
322.84 K, 21270 kPa, Liquid	0.07095
322.88 K, 302 kPa, Gas	0.01585
322.91 K, 720 kPa, Gas	0.01599
322.98 K, 616 kPa, Gas	0.01592
323 K, 200 kPa, Gas	0.01592
323 K, 1199 kPa, Gas	0.01678
323.01 K, 1114 kPa, Gas	0.01647
323.08 K, 11126 kPa, Liquid	0.06485
323.09 K, 6351 kPa, Liquid	0.06135
323.1 K, 453 kPa, Gas	0.0159
323.11 K, 957 kPa, Gas	0.01622
323.13 K, 1448 kPa, Liquid	0.05646
323.15 K, 16396 kPa, Liquid	0.06821
323.18 K, 859 kPa, Gas	0.01617
323.22 K, 103 kPa, Gas	0.01607
323.23 K, 21266 kPa, Liquid	0.07101
323.26 K, 11126 kPa, Liquid	0.06472
323.27 K, 719 kPa, Gas	0.016
323.28 K, 302 kPa, Gas	0.0159
323.28 K, 6351 kPa, Liquid	0.06102
323.33 K, 1199 kPa, Gas	0.01671
323.34 K, 614 kPa, Gas	0.01597
323.34 K, 1447 kPa, Liquid	0.05607
323.34 K, 16393 kPa, Liquid	0.06817
323.4 K, 200 kPa, Gas	0.01592
323.4 K, 21264 kPa, Liquid	0.07095
323.46 K, 956 kPa, Gas	0.01625
323.49 K, 453 kPa, Gas	0.01593
323.55 K, 858 kPa, Gas	0.01618
323.65 K, 103 kPa, Gas	0.01611
323.66 K, 718 kPa, Gas	0.01605
323.69 K, 302 kPa, Gas	0.01592
323.73 K, 612 kPa, Gas	0.01601
323.75 K, 16392 kPa, Liquid	0.06817
323.8 K, 21262 kPa, Liquid	0.07093
323.83 K, 200 kPa, Gas	0.01593
323.91 K, 453 kPa, Gas	0.01589
323.97 K, 16390 kPa, Liquid	0.068
324 K, 21259 kPa, Liquid	0.07084
324.11 K, 302 kPa, Gas	0.01598
324.12 K, 103 kPa, Gas	0.01612
324.29 K, 200 kPa, Gas	0.01599
324.62 K, 103 kPa, Gas	0.01618
331.07 K, 101 kPa, Gas	0.01664
331.09 K, 202 kPa, Gas	0.01678
331.12 K, 299 kPa, Gas	0.01699
331.29 K, 101 kPa, Gas	0.0165
331.3 K, 202 kPa, Gas	0.0167
331.34 K, 299 kPa, Gas	0.01685
331.53 K, 101 kPa, Gas	0.01639
331.54 K, 202 kPa, Gas	0.01658
331.56 K, 300 kPa, Gas	0.01677
331.78 K, 102 kPa, Gas	0.01632
331.78 K, 202 kPa, Gas	0.0165
331.8 K, 300 kPa, Gas	0.0167
331.8 K, 1511 kPa, Gas	0.01797
331.86 K, 1389 kPa, Gas	0.0177
331.9 K, 1236 kPa, Gas	0.01732
331.98 K, 1075 kPa, Gas	0.01717
332 K, 975 kPa, Gas	0.01697
332.04 K, 102 kPa, Gas	0.01627
332.04 K, 202 kPa, Gas	0.01642

Liquid
Conditions	thermal conductivity [W/m/K]
313.15 K	0.05899
323.15 K	0.05606
